The source of these data is patent US10633419B2, “Immunomodulators” (BRISTOL-MYERS SQUIBB COMPANY, priority 2014, dated 2020).

Positions of bridges follow the written chain, without caps; N, C: chain ends. Non-standard residues stand in square brackets, D forms with d. Residues, ends and D or L forms follow the SMILES beside them. ξ: configuration not given here. *: point of attachment. X12 = O=C(O)CCCCCCCCCCCCCCCCCCC(=O)N[C@@H](CCC(=O)NCCCOCCOCCOCCCN*)C(=O)O; X6 = O=C(O)CCCCCCCCCCCCCCCCC(=O)N[C@@H](CCC(=O)NCCCOCCOCCOCCCN*)C(=O)O; X4 = O=C(O)CCCCCCCCCCCCCCCCC(=O)N[C@@H](CC(=O)NCCCOCCOCCOCCCN*)C(=O)O; X11 = O=C(O)CCCCCCCCCCCCC(=O)N[C@@H](CCC(=O)NCCCOCCOCCOCCCN*)C(=O)O; Trp(1-CH2COOH) = N[C@@H](Cc1cn(CC(=O)O)c2ccccc12)C(=O)O; Phe(4-F) = N[C@@H](Cc1ccc(F)cc1)C(=O)O; d(cisHyp) = O=C(O)[C@H]1C[C@@H](O)CN1; ξPro(4R-OH) = O=C(O)C1C[C@@H](O)CN1; Hyp = O=C(O)[C@@H]1C[C@@H](O)CN1; NMeNle = CCCC[C@H](NC)C(=O)O; Pip = O=C(O)[C@@H]1CCCCN1; NMeA = CN[C@@H](C)C(=O)O; Dab = NCC[C@H](N)C(=O)O; Dap = NC[C@H](N)C(=O)O

In this assay the target is T1, PD-L1 (Homo sapiens, UniProt Q9NZQ7).
T1 construct: hPDL1(19-239)-TVMV-His; made in house; host or cells: HEK293T
T1 sequence (Q9NZQ7 with tags, fused parts or gaps): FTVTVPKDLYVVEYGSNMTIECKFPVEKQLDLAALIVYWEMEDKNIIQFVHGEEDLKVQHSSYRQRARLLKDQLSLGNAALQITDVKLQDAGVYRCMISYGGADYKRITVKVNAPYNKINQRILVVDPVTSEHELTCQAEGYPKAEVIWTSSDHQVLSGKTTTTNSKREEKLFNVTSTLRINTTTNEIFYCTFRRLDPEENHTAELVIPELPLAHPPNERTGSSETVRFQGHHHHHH
In words: PD-1/PD-L1 Homogenous Time-Resolved Fluorescence (HTRF) binding assay (PD-1-Ig/PD-L1-His). To be noted: inhibition of PD-1-Ig binding to PD-L1-TVMV-His; value given as range class; read-out: HTRF IC50. The method in brief: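 HTRF competition in dPBS with 0.1% BSA and 0.05% Tween-20: 20 nM PD-1-Ig added after 15 min compound pre-incubation with 10 nM PD-L1-His, then another 15 min. Signal (665/620 nm) after 30 min with APC anti-His (20 nM) and Eu anti-Ig (1 nM).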
On the technique in general: Time-resolved FRET reads energy transfer from a long-lived donor to a nearby acceptor.
A word on the IC50: it is the concentration that gives 50% inhibition. For `CCCC[C@H]1C(=O)N(C)[C@@H](CCCC)C(=O)N[C@@H](CC(C)C)C(=O)N[C@H](C(=O)NCC(=O)N[C@@H](CC(=O)O)C(=O)N[C@@H](CC(=O)NCCCOCCOCCOCCCNC(=O)CC[C@H](NC(=O)CCCCCCCCCCCCCCCCCCC(=O)O)C(=O)O)C(=O)O)CSCC(=O)N[C@@H](Cc2ccc(O)cc2)C(=O)N(C)[C@@H](C)C(=O)N[C@@H](CC(N)=O)C(=O)N2CCC[C@H]2C(=O)N[C@@H](CN)C(=O)N[C@@H](CC(C)C)C(=O)N2C[C@H](O)CC2C(=O)N[C@@H](Cc2c[nH]c3ccccc23)C(=O)N[C@@H](CCN)C(=O)N[C@@H](Cc2cn(CC(=O)O)c3ccccc23)C(=O)N1C` (stereo partly drawn) [Example 11250] ({CH2CO}-Y[NMeA]NP[Dap]L[ξPro(4R-OH)]W[Dab][Trp(1-CH2COOH)][NMeNle][NMeNle]LCGDD(X12)-OH; thioether N-14), the IC50 was 0.3 to 9.9 nM.
For `CCCC[C@H]1C(=O)N(C)[C@@H](CCCC)C(=O)N[C@@H](CC(C)C)C(=O)N[C@H](C(=O)N[C@@H](CC(=O)O)C(=O)N[C@@H](CC(=O)NCCCOCCOCCOCCCNC(=O)CC[C@H](NC(=O)CCCCCCCCCCCCCCCCCCC(=O)O)C(=O)O)C(=O)O)CSCC(=O)N[C@@H](Cc2ccc(O)cc2)C(=O)N(C)[C@@H](C)C(=O)N[C@@H](CC(N)=O)C(=O)N2CCC[C@H]2C(=O)N[C@@H](CN)C(=O)N[C@@H](CC(C)C)C(=O)N2C[C@H](O)C[C@H]2C(=O)N[C@@H](Cc2c[nH]c3ccccc23)C(=O)N[C@@H](CCN)C(=O)N[C@@H](Cc2cn(CC(=O)O)c3ccccc23)C(=O)N1C` [Example 11252] ({CH2CO}-Y[NMeA]NP[Dap]L[Hyp]W[Dab][Trp(1-CH2COOH)][NMeNle][NMeNle]LCDD(X12)-OH; thioether N-14) the value was 10 to 99 nM; for `CCCC[C@H]1C(=O)N(C)[C@@H](CCCC)C(=O)N[C@@H](CC(C)C)C(=O)N[C@H](C(=O)NCC(=O)N[C@@H](CCC(=O)O)C(=O)NCCCOCCOCCOCCCNC(=O)CC[C@H](NC(=O)CCCCCCCCCCCCC(=O)O)C(=O)O)CSCC(=O)N[C@@H](Cc2ccc(O)cc2)C(=O)N(C)[C@@H](C)C(=O)N[C@@H](CC(N)=O)C(=O)N2CCC[C@H]2C(=O)N[C@@H](CN)C(=O)N[C@@H](CC(C)C)C(=O)N2C[C@H](O)C[C@H]2C(=O)N[C@@H](Cc2c[nH]c3ccccc23)C(=O)N[C@@H](CCN)C(=O)N[C@@H](Cc2cn(CC(=O)O)c3ccccc23)C(=O)N1C` [Example 11253] ({CH2CO}-Y[NMeA]NP[Dap]L[Hyp]W[Dab][Trp(1-CH2COOH)][NMeNle][NMeNle]LCGE-X11; thioether N-14), 0.3 to 9.9 nM.
For the compound `CCCC[C@H]1C(=O)N(C)[C@@H](CCCC)C(=O)N[C@@H](CC(C)C)C(=O)N[C@H](C(=O)NCC(=O)N[C@@H](CC(=O)O)C(=O)NCCCOCCOCCOCCCNC(=O)CC[C@H](NC(=O)CCCCCCCCCCCCC(=O)O)C(=O)O)CSCC(=O)N[C@@H](Cc2ccc(O)cc2)C(=O)N(C)[C@@H](C)C(=O)N[C@@H](CC(N)=O)C(=O)N2CCC[C@H]2C(=O)N[C@@H](CN)C(=O)N[C@@H](CC(C)C)C(=O)N2C[C@H](O)C[C@H]2C(=O)N[C@@H](Cc2c[nH]c3ccccc23)C(=O)N[C@@H](CCN)C(=O)N[C@@H](Cc2cn(CC(=O)O)c3ccccc23)C(=O)N1C` [Example 11254] ({CH2CO}-Y[NMeA]NP[Dap]L[Hyp]W[Dab][Trp(1-CH2COOH)][NMeNle][NMeNle]LCGD-X11; thioether N-14), the half-maximal inhibitory concentration (IC50) fell in the range of 0.3 to 9.9 nM.
On to `CCCC[C@H]1C(=O)N(C)[C@@H](CCCC)C(=O)N[C@@H](CC(C)C)C(=O)N[C@H](C(=O)NCC(=O)N[C@@H](CCC(=O)O)C(=O)NCCCOCCOCCOCCCNC(=O)C[C@H](NC(=O)CCCCCCCCCCCCCCCCC(=O)O)C(=O)O)CSCC(=O)N[C@@H](Cc2ccc(O)cc2)C(=O)N(C)[C@@H](C)C(=O)N[C@@H](CC(N)=O)C(=O)N2CCC[C@H]2C(=O)N[C@@H](CN)C(=O)N[C@@H](CC(C)C)C(=O)N2C[C@H](O)C[C@@H]2C(=O)N[C@@H](Cc2c[nH]c3ccccc23)C(=O)N[C@@H](CCN)C(=O)N[C@@H](Cc2cn(CC(=O)O)c3ccccc23)C(=O)N1C` [Example 11257] ({CH2CO}-Y[NMeA]NP[Dap]L[d(cisHyp)]W[Dab][Trp(1-CH2COOH)][NMeNle][NMeNle]LCGE-X4; thioether N-14), for which the IC50 was 0.3 to 9.9 nM.
In the case of `CCCC[C@H]1C(=O)N(C)[C@@H](CCCC)C(=O)N[C@@H](CC(C)C)C(=O)N[C@H](C(=O)NCCCOCCOCCOCCCNC(=O)C[C@H](NC(=O)CCCCCCCCCCCCCCCCC(=O)O)C(=O)O)CSCC(=O)N[C@@H](Cc2ccc(O)cc2)C(=O)N(C)[C@@H](C)C(=O)N[C@@H](CC(N)=O)C(=O)N2CCC[C@H]2C(=O)N[C@@H](CN)C(=O)N[C@@H](CC(C)C)C(=O)N2C[C@H](O)C[C@H]2C(=O)N[C@@H](Cc2c[nH]c3ccccc23)C(=O)N[C@@H](CCN)C(=O)N[C@@H](Cc2cn(CC(=O)O)c3ccccc23)C(=O)N1C` [Example 11258] ({CH2CO}-Y[NMeA]NP[Dap]L[Hyp]W[Dab][Trp(1-CH2COOH)][NMeNle][NMeNle]LC-X4; thioether N-14), the IC50 is 10 to 99 nM.
For `CCCC[C@H]1C(=O)N(C)[C@@H](CCCC)C(=O)N[C@@H](CC(C)C)C(=O)N[C@H](C(=O)NCC(=O)NCCCOCCOCCOCCCNC(=O)CC[C@H](NC(=O)CCCCCCCCCCCCC(=O)O)C(=O)O)CSCC(=O)N[C@@H](Cc2ccc(O)cc2)C(=O)N(C)[C@@H](C)C(=O)N[C@@H](CC(N)=O)C(=O)N2CCC[C@H]2C(=O)N[C@@H](CN)C(=O)N[C@@H](CC(C)C)C(=O)N2C[C@H](O)C[C@H]2C(=O)N[C@@H](Cc2c[nH]c3ccccc23)C(=O)N[C@@H](CCN)C(=O)N[C@@H](Cc2cn(CC(=O)O)c3ccccc23)C(=O)N1C` [Example 11260] ({CH2CO}-Y[NMeA]NP[Dap]L[Hyp]W[Dab][Trp(1-CH2COOH)][NMeNle][NMeNle]LCG-X11; thioether N-14), the IC50 was in the range of 0.3 to 9.9 nM.
As for `CCCC[C@H]1C(=O)N(C)[C@@H](CCCC)C(=O)N[C@@H](CC(C)C)C(=O)N[C@H](C(=O)N[C@@H](CC(=O)O)C(=O)N[C@@H](CCC(=O)NCCCOCCOCCOCCCNC(=O)CC[C@H](NC(=O)CCCCCCCCCCCCC(=O)O)C(=O)O)C(=O)O)CSCC(=O)N[C@@H](Cc2ccc(O)cc2)C(=O)N(C)[C@@H](C)C(=O)N[C@@H](CC(N)=O)C(=O)N2CCC[C@H]2C(=O)N[C@@H](CN)C(=O)N[C@@H](CC(C)C)C(=O)N2C[C@H](O)C[C@H]2C(=O)N[C@@H](Cc2c[nH]c3ccccc23)C(=O)N[C@@H](CCN)C(=O)N[C@@H](Cc2cn(CC(=O)O)c3ccccc23)C(=O)N1C` [Example 11261] ({CH2CO}-Y[NMeA]NP[Dap]L[Hyp]W[Dab][Trp(1-CH2COOH)][NMeNle][NMeNle]LCDE(X11)-OH; thioether N-14), the IC50 was in the range of 0.3 to 9.9 nM.
Regarding `CCCC[C@H]1C(=O)N(C)[C@@H](CCCC)C(=O)N[C@@H](CC(C)C)C(=O)N[C@H](C(=O)NCC(=O)N[C@@H](CC(=O)NCCCOCCOCCOCCCNC(=O)CC[C@H](NC(=O)CCCCCCCCCCCCCCCCC(=O)O)C(=O)O)C(=O)O)CSCC(=O)N[C@@H](Cc2ccc(O)cc2)C(=O)N2CCCC[C@H]2C(=O)N[C@@H](CC(N)=O)C(=O)N2CCC[C@H]2C(=O)N[C@@H](CN)C(=O)N[C@@H](CC(C)C)C(=O)N2C[C@H](O)C[C@H]2C(=O)N[C@@H](Cc2c[nH]c3ccccc23)C(=O)N[C@@H](CCN)C(=O)N[C@@H](Cc2cn(CC(=O)O)c3ccccc23)C(=O)N1C` [Example 11262] ({CH2CO}-Y[Pip]NP[Dap]L[Hyp]W[Dab][Trp(1-CH2COOH)][NMeNle][NMeNle]LCGD(X6)-OH; thioether N-14), the IC50 was in the range of 10 to 99 nM.
For `CCCC[C@H]1C(=O)N(C)[C@@H](CCCC)C(=O)N[C@@H](CC(C)C)C(=O)N[C@H](C(=O)NCC(=O)N[C@@H](CCC(=O)NCCCOCCOCCOCCCNC(=O)CC[C@H](NC(=O)CCCCCCCCCCCCCCCCC(=O)O)C(=O)O)C(=O)O)CSCC(=O)N[C@@H](Cc2ccc(F)cc2)C(=O)N2CCCC[C@H]2C(=O)N[C@@H](CC(=O)O)C(=O)N2CCC[C@H]2C(=O)N[C@@H](CN)C(=O)N[C@@H](CCC(=O)O)C(=O)N2C[C@H](O)C[C@H]2C(=O)N[C@@H](Cc2c[nH]c3ccccc23)C(=O)N[C@@H](CCN)C(=O)N[C@@H](Cc2cn(CC(=O)O)c3ccccc23)C(=O)N1C` [Example 11263] ({CH2CO}-[Phe(4-F)][Pip]DP[Dap]E[Hyp]W[Dab][Trp(1-CH2COOH)][NMeNle][NMeNle]LCGE(X6)-OH; thioether N-14), the IC50 was 0.3 to 9.9 nM.
In the case of `CCCC[C@H]1C(=O)N(C)[C@@H](CCCC)C(=O)N[C@@H](CC(C)C)C(=O)N[C@H](C(=O)NCC(=O)N[C@@H](CC(=O)O)C(=O)NCCCOCCOCCOCCCNC(=O)CC[C@H](NC(=O)CCCCCCCCCCCCCCCCC(=O)O)C(=O)O)CSCC(=O)N[C@@H](Cc2ccc(F)cc2)C(=O)N2CCCC[C@H]2C(=O)N[C@@H](CC(=O)O)C(=O)N2CCC[C@H]2C(=O)N[C@@H](CN)C(=O)N[C@@H](CCC(=O)O)C(=O)N2C[C@H](O)C[C@H]2C(=O)N[C@@H](Cc2c[nH]c3ccccc23)C(=O)N[C@@H](CCN)C(=O)N[C@@H](Cc2cn(CC(=O)O)c3ccccc23)C(=O)N1C` [Example 11264] ({CH2CO}-[Phe(4-F)][Pip]DP[Dap]E[Hyp]W[Dab][Trp(1-CH2COOH)][NMeNle][NMeNle]LCGD-X6; thioether N-14), the IC50 is 0.3 to 9.9 nM.
In the case of `CCCC[C@H]1C(=O)N(C)[C@@H](CCCC)C(=O)N[C@@H](CC(C)C)C(=O)N[C@H](C(=O)NCC(=O)N[C@@H](CCC(=O)O)C(=O)NCCCOCCOCCOCCCNC(=O)CC[C@H](NC(=O)CCCCCCCCCCCCCCCCC(=O)O)C(=O)O)CSCC(=O)N[C@@H](Cc2ccc(F)cc2)C(=O)N2CCCC[C@H]2C(=O)N[C@@H](CC(=O)O)C(=O)N2CCC[C@H]2C(=O)N[C@@H](CN)C(=O)N[C@@H](CCC(=O)O)C(=O)N2C[C@H](O)C[C@H]2C(=O)N[C@@H](Cc2c[nH]c3ccccc23)C(=O)N[C@@H](CCN)C(=O)N[C@@H](Cc2cn(CC(=O)O)c3ccccc23)C(=O)N1C` [Example 11265] ({CH2CO}-[Phe(4-F)][Pip]DP[Dap]E[Hyp]W[Dab][Trp(1-CH2COOH)][NMeNle][NMeNle]LCGE-X6; thioether N-14), the half-inhibitory concentration (IC50) fell in the range of 10 to 99 nM.
